Reference: patent publication US20020192286A1, “Biodegradable triblock copolymers as solubilizing agents for drugs and method of use thereof” (Macromed, Incorporated, priority 2001, published 2002)
≈ marks a conversion by molar mass, not a printed value.

Key:
[1] = Solubility of amphotericin B in 23 wt % triblock copolymer solution; assay type: physicochemical
Experimental: Triblock copolymer of Example 2 (entry number 1) was used. The drug was mixed with the copolymer solution (23 wt % copolymer in water). The mixture was allowed to stand for 30 minutes before filtration.

[2] = Behaviour of the polymer solution in aqueous liquid at 35-42° C.; assay type: physicochemical; settings: copolymer with drug; between at least 35-42° C.
Experimental: PEG (Mw=1450; 476.2 g) was dried under vacuum (1 mmHg) at 130° C. for 5 hours. D,L-Lactide (412.9 grams) and glycolide (110.9 grams) were added to the flask and heated to 145° C. to afford a homogenous solution. Polymerization was initiated by the addition of 250 mg stannous octoate to the reaction mixture. After maintaining the reaction for five hours at 145° C., the reaction was stopped and the flask was cooled to room temperature. Unreacted lactide and glycolide were removed by vacuum distillation. […] The copolymer was purified twice by dissolving in water to afford a 25% solution, and letting the solution stir overnight at room temperature followed by elevating the solution temperature to 70° C. to precipitate the polymer. Excess water was removed by freeze drying. […] The GPC was performed on two Phenogel columns (300×7.8), 500 Å, and a mixed bed, connected in series. Mobile phase was tetrahydrofuran. Calibration was with PEG standards. Detection was by refractive index.

[3] = cited from earlier work
physchem [4] = assay: physchem
Experimental: Triblock copolymers of Example 2 were used. The neat polymer and the drug were mixed and gently heated (ca. 50° C.) to completely dissolve the drug. Water was added to the mixture to afford a 23% by weight aqueous solution of the triblock copolymers. The solution was allowed to stand for 30 minutes before filtration (0.2 μm pore size filter).

physchem [5] = assay: physchem; remark: listed apart in the source
Experimental: Polymer solutions containing 23% by weight of the copolymer were prepared in water, and paclitaxel was added to the solution and the mixture was stirred for approximately 20 minutes.

state of polymer solution containing drug when mixed with an aqueous liquid [2]	solubility at 30 min (physchem [4]; 25 °C, aqueous with cosolvent or surfactant or cyclodextrin, Drug Solubility) [µg/mL]	Drug Solubility (physchem [4]; 30 min) [µg/mL]	solubility (physchem [4]; water, water solubility) [µg/mL]	increase of solubility (physchem [5])	solubility (physchem [5]; aqueous with cosolvent or surfactant or cyclodextrin, thermodynamic from solid) [µg/mL]	solubility (physchem [5]; water) [µg/mL]	SMILES	solubility in the aqueous triblock copolymer solution ([1]; 23 wt % copolymer of Example 2 entry number 1 in water, 30 minutes, filtered) [µg/mL]	increase of solubility ([1]; copolymer solution versus pure water) [fold]	reported solubility in pure water [3] [µg/mL]
remained as free flowing liquids	1500 (≈ 4250 µM)	1570	10 (≈ 28.3 µM)	–	–	–	COC1=CC(=O)C[C@@H](C)[C@]12Oc1c(Cl)c(OC)cc(OC)c1C2=O [griseofulvin]	–	–	–
remained as a free flowing liquid	–	–	–	at least 5000 fold	> 25000	~5 (≈ 5.86 µM)	CC(=O)O[C@H]1C(=O)[C@@]2(C)[C@H]([C@H](OC(=O)c3ccccc3)[C@]3(O)C[C@H](OC(=O)[C@H](O)[C@@H](NC(=O)c4ccccc4)c4ccccc4)C(C)=C1C3(C)C)[C@]1(OC(C)=O)CO[C@@H]1C[C@@H]2O [paclitaxel]	–	–	–

SMILES	state of polymer solution containing drug when mixed with an aqueous liquid [2]	solubility at 30 min (physchem [4]; 25 °C, aqueous with cosolvent or surfactant or cyclodextrin, Drug Solubility) [µg/mL]	Drug Solubility (physchem [4]; 30 min) [µg/mL]	solubility (physchem [4]; water, water solubility) [µg/mL]	increase of solubility (physchem [5])	solubility (physchem [5]; aqueous with cosolvent or surfactant or cyclodextrin, thermodynamic from solid) [µg/mL]	solubility (physchem [5]; water) [µg/mL]	solubility in the aqueous triblock copolymer solution ([1]; 23 wt % copolymer of Example 2 entry number 1 in water, 30 minutes, filtered) [µg/mL]	increase of solubility ([1]; copolymer solution versus pure water) [fold]	reported solubility in pure water [3] [µg/mL]
C[C@@H]1[C@H](O)[C@@H](C)/C=C/C=C/C=C/C=C/C=C/C=C/C=C/[C@H](O[C@@H]2O[C@H](C)[C@@H](O)[C@H](N)[C@@H]2O)C[C@@H]2O[C@](O)(C[C@@H](O)C[C@@H](O)[C@H](O)CC[C@@H](O)C[C@@H](O)CC(=O)O[C@H]1C)C[C@H](O)[C@H]2C(=O)O [amphotericin B]	remained as a free flowing liquid	–	–	–	–	–	–	150 (≈ 162 µM)	50	3
